Tested on: Caenorhabditis elegans
Test: C. elegans L1 nematicidal dose response in 96-well plates, 5 day visual score (Example 2; same procedure for Example 7, Table 3)
Assay type: in vivo
Parameters: key to 5 Day Visual Score V1 / 5 Day Visual Score V2 / 5 Day Visual Score V3 / 5 Day Visual Score V4 / 5 Day Visual Score V6 / 5 Day Visual Score V5 / Initial HTS Run Visual Score / Follow-up HTS Run Visual Score: Dead: only stiff L1s (no movement); Dead (L4): worms are dead, but at a later larval stage; majority of worms are L1 (based on size) worms move when plate is tapped; majority of worms are L2 (based on size); majority of worms are L3 (based on size); majority of worms are L4 (based on size); AD: majority of worms are adult; #AD: 5 adult worms or less; B!: sterile (0-25 progeny); B: low broodsize (25-100 progeny); ˜B: moderate broodsize (100-250 progeny); <: reduced broodsize (250-500 progeny); OK: no effect (˜1000+ progeny)
Conditions: for 5 Day Visual Score V1 / 5 Day Visual Score V3 / 5 Day Visual Score V4 / 5 Day Visual Score V5 / 5 Day Visual Score V6 / 5 Day Visual Score V2: dose response
In short: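 Scoring was by eye at 100× on day 5, after incubation at 20° C, of 20 C. elegans L1s per well fed 1% E. coli HB101 in NGM. Compound columns V1–V6 spanned 70 μM to 0.3 μM in 3-fold steps, with 1.4% DMSO in the top well and as control.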

Row | Structure (SMILES) | Follow-up HTS Run % Run | Follow-up HTS Run Visual Score | Follow-up HTS Run mOD | Initial HTS Run % Run | Initial HTS Run Visual Score | Initial HTS Run mOD | 5 Day Visual Score V1 (dilution V1, day 5) | 5 Day Visual Score V3 (dilution V3, day 5) | 5 Day Visual Score V4 (dilution V4, day 5) | 5 Day Visual Score V5 (dilution V5, day 5) | 5 Day Visual Score V6 (dilution V6, day 5) | 5 Day Visual Score V1 (dilution V1, 5 day) | 5 Day Visual Score V2 (dilution V2, 5 day) | 5 Day Visual Score V3 (dilution V3, 5 day) | 5 Day Visual Score V4 (dilution V4, 5 day) | 5 Day Visual Score V5 (dilution V5, 5 day) | 5 Day Visual Score V6 (dilution V6, 5 day) | 5 Day Visual Score V2 (dilution V2, day 5)
1 | CCCCN(CCCCO)c1nc(N2CCN(c3c(C)cccc3C)CC2)ns1 [compound 220] | 75% | Dead | 121 mOD | 95% | 1AD/B! | 105 mOD | Dead | ˜B (moderate broodsize (100-250 progeny)) | OK (no effect (˜1000+ progeny)) | OK (no effect (˜1000+ progeny)) | OK (no effect (˜1000+ progeny)) | – | – | – | – | – | – | –
2 | CCN(Cc1ccccc1)c1nc(NCc2ccccc2C(F)(F)F)ns1 [compound 320] | 118% | – | 190 mOD | 102% | – | 112 mOD | – | – | – | – | – | L4#AD/B! | < (reduced broodsize (250-500 progeny)) | OK (no effect (˜1000+ progeny)) | OK (no effect (˜1000+ progeny)) | OK (no effect (˜1000+ progeny)) | OK (no effect (˜1000+ progeny)) | –
3 | CCCCCCCCCCNc1nsc(N(C)Cc2ccccc2)n1 [compound 284] | 122% | Dead | 196 mOD | 142% | Dead | 156 mOD | Dead | Dead | ˜B (moderate broodsize (100-250 progeny)) | OK (no effect (˜1000+ progeny)) | OK (no effect (˜1000+ progeny)) | – | – | – | – | – | – | Dead
4 | OCCN(Cc1ccccc1)c1nc(NCc2ccc(C(F)(F)F)cc2)ns1 [compound 255] | 98% | L1/L2 - Dead L3 | 157 mOD | 94% | Dead(L3) | 103 mOD | Dead | OK (no effect (˜1000+ progeny)) | OK (no effect (˜1000+ progeny)) | OK (no effect (˜1000+ progeny)) | OK (no effect (˜1000+ progeny)) | – | – | – | – | – | – | Dead
5 | C=CCN(CC=C)c1nc(NCCCCCCCCCC)ns1 [compound 282] | 122% | Dead | 197 mOD | 135% | Dead | 148 mOD | Dead | – | OK (no effect (˜1000+ progeny)) | OK (no effect (˜1000+ progeny)) | OK (no effect (˜1000+ progeny)) | – | – | – | – | – | – | Dead
6 | OC1CCN(c2nc(NCc3ccccc3)ns2)CC1 [compound 262] | 106% | – | 171 mOD | 110% | L3/L4/AD/B! | 121 mOD | L4/#AD/B! | OK (no effect (˜1000+ progeny)) | OK (no effect (˜1000+ progeny)) | OK (no effect (˜1000+ progeny)) | OK (no effect (˜1000+ progeny)) | – | – | – | – | – | – | < (reduced broodsize (250-500 progeny))
7 | Cc1cccc(C)c1N1CCN(c2nsc(N(CC(C)C)CC(C)C)n2)CC1 [compound 231] | 65% | 2AD/B | 105 mOD | 119% | 2AD/B | 131 mOD | Dead | < (reduced broodsize (250-500 progeny)) | OK (no effect (˜1000+ progeny)) | OK (no effect (˜1000+ progeny)) | OK (no effect (˜1000+ progeny)) | – | – | – | – | – | – | Dead
8 | CCN(Cc1ccccc1)c1nc(NCc2ccc(F)cc2F)ns1 [compound 292] | 116% | L4/AD/B! | 187 mOD | 110% | – | 121 mOD | – | OK (no effect (˜1000+ progeny)) | OK (no effect (˜1000+ progeny)) | OK (no effect (˜1000+ progeny)) | OK (no effect (˜1000+ progeny)) | – | – | – | – | – | – | ˜B (moderate broodsize (100-250 progeny))
9 | CCN(c1nc(NCc2c(F)cccc2F)ns1)C1CCCCC1 [compound 297] | 109% | L4/AD/B | 175 mOD | 104% | L4/AD/B!-Few Eggs | 114 mOD | – | OK (no effect (˜1000+ progeny)) | OK (no effect (˜1000+ progeny)) | OK (no effect (˜1000+ progeny)) | OK (no effect (˜1000+ progeny)) | – | – | – | – | – | – | B (low broodsize (25-100 progeny))
10 | CN(CCc1ccccc1)c1nc(NCc2ccccc2C(F)(F)F)ns1 [compound 322] | 111% | B (low broodsize (25-100 progeny)) | 178 mOD | 94% | B!-Clear-Few Eggs | 103 mOD | – | – | – | – | – | B! (sterile (0-25 progeny)) | – | OK (no effect (˜1000+ progeny)) | OK (no effect (˜1000+ progeny)) | OK (no effect (˜1000+ progeny)) | OK (no effect (˜1000+ progeny)) | –
11 | CCN(CC)C(=O)C1CCCN(c2nc(NCc3ccc(C(F)(F)F)cc3)ns2)C1 (stereo not shown) [compound 249] | 112% | – | 180 mOD | 98% | – | 108 mOD | – | OK (no effect (˜1000+ progeny)) | OK (no effect (˜1000+ progeny)) | OK (no effect (˜1000+ progeny)) | OK (no effect (˜1000+ progeny)) | – | – | – | – | – | – | ˜B (moderate broodsize (100-250 progeny))
12 | CCN(Cc1ccccc1)c1nc(NCCc2ccc(F)cc2)ns1 [compound 241] | 88% | B (low broodsize (25-100 progeny)) | 141 mOD | 114% | – | 125 mOD | – | OK (no effect (˜1000+ progeny)) | OK (no effect (˜1000+ progeny)) | OK (no effect (˜1000+ progeny)) | OK (no effect (˜1000+ progeny)) | – | – | – | – | – | – | ˜B (moderate broodsize (100-250 progeny))

Source: patent publication US20020002171A1, “Materials and methods for killing nematodes and nematode eggs” (priority 2000, published 2002)
